# Values joined by “and” are separate entries in the source; they are usually repeats but may differ in a detail not shown here. Equal entries are not always repeated. ± gives the expanded uncertainty stated by the source.
# Conditions: Crystal, Calculated from knudsen effusion weight loss
smiles,measurement,setting,value
"[O-][n+]1ccccc1-c1ccccn1 [2,2'-bipyridyl N-oxide]",vapor or sublimation pressure,319.17 K,5.02e-05 ± 2.5e-06 kPa and 4.83e-05 ± 2.4e-06 kPa and 4.82e-05 ± 2.4e-06 kPa
same,vapor or sublimation pressure,321.15 K,6.32e-05 ± 3.2e-06 kPa and 6.13e-05 ± 3.1e-06 kPa
same,vapor or sublimation pressure,323.16 K,7.8e-05 ± 3.9e-06 kPa and 8.26e-05 ± 4.1e-06 kPa and 7.96e-05 ± 4e-06 kPa
same,vapor or sublimation pressure,325.15 K,0.0001 ± 5e-06 kPa and 9.94e-05 ± 5e-06 kPa and 0.000102 ± 5e-06 kPa
same,vapor or sublimation pressure,327.14 K,0.000126 ± 6e-06 kPa and 0.000128 ± 6e-06 kPa and 0.000127 ± 6e-06 kPa
same,vapor or sublimation pressure,329.16 K,0.000163 ± 8e-06 kPa and 0.000161 ± 8e-06 kPa and 0.000162 ± 8e-06 kPa
same,vapor or sublimation pressure,331.13 K,0.000201 ± 1e-05 kPa and 0.000198 ± 1e-05 kPa and 0.0002 ± 1e-05 kPa

# Source: the NIST ThermoML archive (doi:10.1016/j.jct.2011.02.011)
